Reference: US9066861B2 (priority 2009, dated 2015)

What was measured:
[1] = Stability analysis of raw API by titration method (BP); format: physicochemical; conditions: after 3 Months
Source text: (§1) In both studies the * Initial denotes the results of the samples tested at the time of receipt of the API from the supplier.

[2] = Stability analysis of raw API by stability indicating HPLC method; format: physicochemical; conditions: for Assay (%) HPLC / Percentage Drop (%) HPLC / loss in 3 Months: raw API; for Assay (%) HPLC / Percentage Drop (%) HPLC: after 3 Months
Source text: as §1

For CC(=O)O[C@H]1C[C@@]2(C)[C@@H](C[C@@H](O)[C@H]3[C@@]4(C)CC[C@@H](O)[C@@H](C)[C@@H]4CC[C@@]32C)/C1=C(\CCC=C(C)C)C(=O)O [Sodium Fusidate], the “Assay (%) Titration” value ([1]; 45° C. (C) closed Petri dish) was 97.16%, the “Percentage Drop (%) Titration” value ([1]; 45° C. (C) closed Petri dish) was 1.54% and the “Assay (%) Titration” value ([1]; 45° C. (O) open Petri dish) was 97.07%. For the same compound, the “Percentage Drop (%) Titration” value ([1]; 45° C. (O) open Petri dish) was 1.63%, the “Assay (%) Titration” value ([1]; RT (C) closed Petri dish) was 98.85% and the “Percentage Drop (%) Titration” value ([1]; RT (C) closed Petri dish) was −0.15%. For the same compound, the “Assay (%) Titration” value ([1]; RT (O) open Petri dish) was 97.71%, the “Percentage Drop (%) Titration” value ([1]; RT (O) open Petri dish) was 0.99% and the “Initial (%)” value ([2]; raw API tested at the time of receipt from the supplier, method not stated) was 98.7%. The “Assay (%) HPLC” value ([2]; 45° C. (C) closed Petri dish) was 92.96%, the “Percentage Drop (%) HPLC” value ([2]; 45° C. (C) closed Petri dish) was 5.74% and the “Assay (%) HPLC” value ([2]; 45° C. (O) open Petri dish) was 92.65%. For the same compound, the “Percentage Drop (%) HPLC” value ([2]; 45° C. (O) open Petri dish) was 6.05%, the “loss in 3 Months” value ([2]; 45° C. (open condition)) was “about 6%” and the “Assay (%) HPLC” value ([2]; RT (C) closed Petri dish) was 97.67%. The “Percentage Drop (%) HPLC” value ([2]; RT (C) closed Petri dish) was 1.03%, the “Assay (%) HPLC” value ([2]; RT (O) open Petri dish) was 96.25% and the “Percentage Drop (%) HPLC” value ([2]; RT (O) open Petri dish) was 2.45%. For the same compound, the “loss in 3 Months” value ([2]; room temperature (open condition)) was “about 2.5%” and the “stability as an API, Sodium Fusidate compared with Fusidic acid” value ([2]; raw APIs, Tables 1 and 2) was “significantly more stable than Fusidic acid”.
